Experimental data as given in US11312719B2, “9-substituted amino triazolo quinazoline derivatives as adenosine receptor antagonists, pharmaceutical compositions and their use” (Merck Sharp & Dohme Corp., priority 2018, dated 2022).

Key:
[1] = target: human A2a adenosine receptor (Homo sapiens (Human), UniProt P29274); assay: A2a receptor affinity radioligand binding assay ([3H] SCH58261); conditions: for IC50: membranes from HEK293 or CHO cells expressing human A2a receptor
Description: The A2a receptor affinity binding assay measured the amount of binding of a tritiated ligand with high affinity for the A2a adenosine receptor to membranes made from HEK293 or CHO cells recombinantly expressing the human A2a adenosine receptor, in the presence of varying concentrations of a compound of the invention.
Measurement of A2a Binding Affinity Using Radioligand Binding
148 μL (5 μg/mL) membranes (Perkin Elmer, Cat. No. RBHA2aM400UA) and 2 μL compounds of the invention to be tested (test compound) were transferred to individual wells of a 96-well polypropylene assay plate and incubated for 15 to 30 minutes at room temperature. [^3H] SCH58261 ((7-(2-phenylethyl)-5-amino-2-(2-furyl)-pyrazolo-[4,3-e]-1,2,4-triazolo[1,5-c]pyrimidine)) was diluted in assay buffer (50 mM Tris pH 7.4, 10 mM MgCl2, 0.005% Tween20) to a concentration of 4 nM and 50 μL transferred to each well of the assay plate. To define total and non-specific binding, wells containing 1% DMSO and 1 μM ZM241385 (Tocris Bioscience, Cat. No. 1036) respectively, were also included. The assay plate was incubated at room temperature for 60 minutes with agitation. Using a FilterMate Harvester® (Perkin Elmer), the contents of the assay plate were filtered through a UniFilter-96® PEI coated plate (Perkin Elmer Cat. No. 6005274 or 6005277). Filtering was achieved by aspirating the contents of the assay plate for 5 seconds, then washing and aspirating the contents three times with ice-cooled wash buffer (50 mM Tris-HCl pH 7.4, 150 mM NaCl) and allowing the vacuum manifold to dry the plate for 30 seconds. The filter plate was incubated for at least 1 hour at 55° C., and allowed to dry. The bottom of the filter plate was sealed with backing tape. 40 μL Ultima Gold™ (Perkin Elmer, Cat. No. 6013329) was added to each well of the filter plate and the top of the plate was sealed with TopSeal-A PLUS® clear plate seal (Perkin Elmer, Cat. No. 6050185). The plate was incubated for at least 20 minutes, and then the amount of radioactivity remaining in each well was determined using a TopCount® (Perkin Elmer) scintillation counter. After normalization to total and non-specific binding, the percent effect at each compound concentration was calculated. The plot of percent effect versus the log of compound concentration was analyzed electronically using a 4-parameter logistic fit based on the Levenberg-Marquardt algorithm to generate IC50 values.

[2] = target: human A2b adenosine receptor (Homo sapiens (Human), UniProt P29275); assay: A2b radioligand filtration binding assay; conditions: for IC50: membranes from HEK293 cells expressing human A2b receptor
Description: Measurement of A2b Binding Affinity
The reported affinity of the compounds of the invention for the human A2b adenosine receptor was determined experimentally using a radioligand filtration binding assay. This assay measures the amount of binding of a tritiated proprietary A2b receptor antagonist, in the presence and absence of a compound of the invention, to membranes made from HEK293 cells recombinantly expressing the human A2b adenosine receptor (Perkin Elmer, Cat. No. ES-013-C).
148 μL (135 μg/mL) membranes and 2 μL test compounds were transferred to individual wells of a 96-well polypropylene assay plate and incubated for 15 to 30 minutes at room temperature with agitation. Tritiated radioligand was diluted to a concentration of 14 nM in assay buffer (phosphate buffered saline without Magnesium and Calcium, pH 7.4; GE Healthcare Life Sciences, Cat. No. SH30256.01) and then 50 μL of the solution were transferred to each well of the assay plate. To define total and non-specific binding, wells containing 1% DMSO and 20 μM N-ethylcarboxamidoadenosine (Tocris Bioscience, Cat. No. 1691) respectively, were also included. The wells of the assay plate were incubated at room temperature for 60 minutes with agitation, then filtered using a FilterMate Harvester® (Perkin Elmer) or similar equipment through a UniFilter-96® PEI coated plate (Perkin Elmer Cat. No. 6005274 or 6005277). Filtering was achieved by aspirating the contents of the assay plate for 5 seconds, then washing and aspirating the contents three times with ice-cooled wash buffer (assay buffer supplemented with 0.0025% Brij58) and allowing the vacuum manifold to dry the plate for 30 seconds. The filter plate was incubated for at least 1 hour at 55° C. and allowed to dry. The bottom of the filter plate was then sealed with backing tape. 40 μL Ultima Gold™ (Perkin Elmer, Cat. No. 6013329) was added to each well of the filter plate and the top of the plate was sealed with TopSeal-A PLUS® clear plate seal (Perkin Elmer, Cat. No. 6050185). The plates were then incubated for at least 20 minutes, and then the amount of radioactivity remaining in each well was determined using a TopCount® (Perkin Elmer) scintillation counter. After normalization to total and non-specific binding, the percent effect at each compound concentration was calculated. The plot of percent effect versus the log of compound concentration was analyzed electronically using a 4-parameter logistic fit based on the Levenberg-Marquardt algorithm to generate IC50 values.

human A2b adenosine receptor, sequence (P29275 whole entry): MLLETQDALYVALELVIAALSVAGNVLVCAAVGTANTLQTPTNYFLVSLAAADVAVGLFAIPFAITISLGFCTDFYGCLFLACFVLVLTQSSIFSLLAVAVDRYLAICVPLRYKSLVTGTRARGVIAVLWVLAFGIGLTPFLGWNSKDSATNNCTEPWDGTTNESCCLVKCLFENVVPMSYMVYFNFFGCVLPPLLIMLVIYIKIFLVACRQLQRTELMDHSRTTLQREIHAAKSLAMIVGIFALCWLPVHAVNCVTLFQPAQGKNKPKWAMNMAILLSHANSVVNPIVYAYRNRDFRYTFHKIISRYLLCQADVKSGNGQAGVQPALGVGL
human A2a adenosine receptor, sequence (P29274 whole entry): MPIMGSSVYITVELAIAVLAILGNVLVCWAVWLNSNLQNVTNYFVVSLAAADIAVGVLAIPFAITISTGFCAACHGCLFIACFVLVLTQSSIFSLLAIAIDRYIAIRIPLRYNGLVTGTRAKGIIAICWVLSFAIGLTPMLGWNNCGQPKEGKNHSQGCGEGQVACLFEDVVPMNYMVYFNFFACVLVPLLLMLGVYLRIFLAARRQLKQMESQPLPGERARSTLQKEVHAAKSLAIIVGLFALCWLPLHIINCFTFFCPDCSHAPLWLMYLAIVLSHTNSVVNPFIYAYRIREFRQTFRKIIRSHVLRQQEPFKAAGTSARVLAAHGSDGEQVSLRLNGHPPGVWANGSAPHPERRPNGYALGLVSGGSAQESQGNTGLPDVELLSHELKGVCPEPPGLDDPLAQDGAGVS

Compound | IC50 [1] | IC50 [2] | A2A binding % Inh. @ 1000 nM ([1]; @ 1000 nM) | A2B binding % Inh. @ 10000 nM [2]
COc1cc2nc(N)n3nc(C4CC(F)CN(c5cnn(C6CCOCC6)c5)C4)nc3c2cc1F (single isomer, unassigned) [Example 56, 9-fluoro-2-((3R,5S or 3S,5R)-5-fluoro-1-(1-(tetrahydro-2H-pyran-4-yl)-1H-pyrazol-4-yl)piperidin-3-yl)-8-methoxy-[1,2,4]triazolo[1,5-c]quinazolin-5-amine] | 1.8 nM | 846 nM | – | –
COc1cc2nc(N)n3nc(C45CC4CN(c4cnn(CC(C)(C)O)c4)C5)nc3c2cc1F (single isomer, unassigned) [Example 58, 1-(4-((1R,5R or 1S,5S)-1-(5-amino-9-fluoro-8-methoxy-[1,2,4]triazolo[1,5-c]quinazolin-2-yl)-3-azabicyclo[3.1.0]hexan-3-yl)-1H-pyrazol-1-yl)-2-methylpropan-2-ol] | 13.6 nM | 136 nM | – | –
COc1cc2nc(N)n3nc(C4CCCCN(c5cnn(CC(C)(C)O)c5)C4)nc3c2cc1F (single isomer, unassigned) [Example 60, (R or S)-1-(4-(3-(5-amino-9-fluoro-8-methoxy-[1,2,4]triazolo[1,5-c]quinazolin-2-yl)azepan-1-yl)-1H-pyrazol-1-yl)-2-methylpropan-2-ol] | 31.4 nM | 5860 nM | – | –
COc1cc2nc(N)n3nc(C4CCCCN(c5cnn(CC(C)(C)O)c5)C4)nc3c2cc1F (single isomer, unassigned) [Example 61, (S or R)-1-(4-(3-(5-amino-9-fluoro-8-methoxy-[1,2,4]triazolo[1,5-c]quinazolin-2-yl)azepan-1-yl)-1H-pyrazol-1-yl)-2-methylpropan-2-ol] | 5 nM | 99 nM | – | –
COc1cc2nc(N)n3nc(C4(F)CCN(c5cnn(CC(C)(C)O)c5)C4)nc3c2cc1F (single isomer, unassigned) [Example 62, (R or S)-1-(4-(3-(5-amino-9-fluoro-8-methoxy-[1,2,4]triazolo[1,5-c]quinazolin-2-yl)-3-fluoropyrrolidin-1-yl)-1H-pyrazol-1-yl)-2-methylpropan-2-ol] | 146 nM | 383 nM | – | –
COc1cc2nc(N)n3nc(C4(F)CCN(c5cnn(CC(C)(C)O)c5)C4)nc3c2cc1F (single isomer, unassigned) [Example 63, (S or R)-1-(4-(3-(5-amino-9-fluoro-8-methoxy-[1,2,4]triazolo[1,5-c]quinazolin-2-yl)-3-fluoropyrrolidin-1-yl)-1H-pyrazol-1-yl)-2-methylpropan-2-ol] | 242 nM | 2430 nM | – | –
COc1cc2nc(N)n3nc([C@@H]4CCCN(c5ncn(C(C)C(C)(C)O)n5)C4)nc3c2cc1F (single isomer, unassigned) [Example 64, (R or S)-3-(3-((R)-3-(5-amino-9-fluoro-8-methoxy-[1,2,4]triazolo[1,5-c]quinazolin-2-yl)piperidin-1-yl)-1H-1,2,4-triazolo-1-yl)-2-methylbutan-2-ol] | 1 nM | 555 nM | – | –
COc1cc2nc(N)n3nc([C@@H]4CCCN(c5ncn(C(C)C(C)(C)O)n5)C4)nc3c2cc1F (single isomer, unassigned) [Example 65, (S or R)-3-(3-((R)-3-(5-amino-9-fluoro-8-methoxy-[1,2,4]triazolo[1,5-c]quinazolin-2-yl)piperidin-1-yl)-1H-1,2,4-triazolo-1-yl)-2-methylbutan-2-ol] | 1.2 nM | 228 nM | – | –
COc1cc2nc(N)n3nc(C4CN(c5cnn(CC(C)(C)O)c5)CCC4C)nc3c2cc1F (single isomer, unassigned) [Example 66, 1-(4-((3S or 3R,4S or 4R)-3-(5-amino-9-fluoro-8-methoxy-[1,2,4]triazolo[1,5-c]quinazolin-2-yl)-4-methylpiperidin-1-yl)-1H-pyrazol-1-yl)-2-methylpropan-2-ol] | 0.6 nM | 957 nM | – | –
COc1cc2nc(N)n3nc(C4CN(c5cnn(CC(C)(C)O)c5)CCC4C)nc3c2cc1F (single isomer, unassigned) [Example 67, 1-(4-((3R or 3S,4R or 4S)-3-(5-amino-9-fluoro-8-methoxy-[1,2,4]methylpiperidin-1-yl)-1H-pyrazol-1-yl)-2-methylpropan-2-ol] | – | – | 44% Inh. | 31% Inh.
COc1cc(F)cc2c1nc(N)n1nc([C@@H]3C[C@H](F)CN(c4cnn(CC(C)(C)O)c4)C3)nc21 (single isomer, unassigned) [Example 68, 1-(4-((3R,5S or 3S,5R)-3-(5-amino-9-fluoro-7-methoxy-[1,2,4]triazolo[1,5-c]quinazolin-2-yl)-5-fluoropiperidin-1-yl)-1H-pyrazol-1-yl)-2-methylpropan-2-ol] | 181 nM | – | – | 31% Inh.
COc1cc(F)cc2c1nc(N)n1nc([C@H]3C[C@@H](F)CN(c4cnn(CC(C)(C)O)c4)C3)nc21 (single isomer, unassigned) [Example 69, 1-(4-((3S,5R or 3R,5S)-3-(5-amino-9-fluoro-7-methoxy-[1,2,4]triazolo[1,5-c]quinazolin-2-yl)-5-fluoropiperidin-1-yl)-1H-pyrazol-1-yl)-2-methylpropan-2-ol] | 2.6 nM | 561 nM | – | –
COc1cc(F)cc2c1nc(N)n1nc(C3CC(F)CN(c4cn(CC(C)(C)O)nc4C)C3)nc21 (single isomer, unassigned) [Example 70, 1-(4-((3R,5S or 3S,5R)-3-(5-amino-9-fluoro-7-methoxy-[1,2,4]triazolo[1,5-c]quinazolin-2-yl)-5-fluoropiperidin-1-yl)-3-methyl-1H-pyrazol-1-yl)-2-methylpropan-2-ol] | 0.6 nM | 786 nM | – | –
COc1cc(F)cc2c1nc(N)n1nc(C3CC(F)CN(c4cn(CC(C)(C)O)nc4C)C3)nc21 (single isomer, unassigned) [Example 71, 1-(4-((3S,5R or 3R,5S)-3-(5-amino-9-fluoro-7-methoxy-[1,2,4]fltriazolo[1,5-c]quinazolin-2-yl)-5-fluoropiperidin-1-yl)-3-methyl-1H-pyrazol-1-yl)-2-methylpropan-2-ol] | 35.6 nM | – | – | 43% Inh.
COc1cc(F)cc2c1nc(N)n1nc(C3CC(F)CN(c4cnn(CC5(O)CCC5)c4)C3)nc21 (single isomer, unassigned) [Example 72, 1-(4-((3R,5S or 3S,5R)-3-(5-amino-9-fluoro-7-methoxy-[1,2,4]triazolo[1,5-c]quinazolin-2-yl)-5-fluoropiperidin-1-yl)-1H-pyrazol-1-yl)methyl)cyclobutan-1-ol] | 2 nM | 484 nM | – | –
COc1cc(F)cc2c1nc(N)n1nc(C3CC(F)CN(c4cnn(CC5(O)CCC5)c4)C3)nc21 (single isomer, unassigned) [Example 73, 1-(4-((3S,5R or 3R,5S)-3-(5-amino-9-fluoro-7-methoxy-[1,2,4]triazolo[1,5-c]quinazolin-2-yl)-5-fluoropiperidin-1-yl)-1H-pyrazol-1-yl)methyl)cyclobutan-1-ol] | 436 nM | 5120 nM | – | –
